Results reported in PubChem BioAssay AID330 (DTP/NCI, 2004).
Where “and” joins values, the source holds several entries; their conditions need not be identical. Identical values can stand only once. Toxic doses and inconclusive results are not listed. How the source made its calls: active means survival T/C of 150% or more; inactive means T/C below 125% in these data.

System: P388 leukemia ip, CD2F1 mice, survival T/C
Assay: NCI In Vivo Anticancer Drug Screen. Data for tumor model P388 Leukemia (intraperitoneal) in CD2F1 (CDF1) mice
Conditions: endpoint: median survival time, higher = longer survival
How it was run: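 Mice carrying the transplanted tumor received test compound or vehicle. Survival was recorded in each group, and the value is the treated-group measurement divided by that of the vehicle-treated control group.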

Measured: T/C

O=C(Nc1cccc(C(F)(F)F)c1)c1cc2cc(Br)ccc2oc1=O
inactive: dose: 60.0 mg/kg/injection, schedule: Q01DX005 (ip), vehicle: Klucel (hydroxypropylcellulose) (HPC) 102 % of control | dose: 120.0 mg/kg/injection, schedule: Q01DX005 (ip), vehicle: Klucel (hydroxypropylcellulose) (HPC) 96 % of control | dose: 240.0 mg/kg/injection, schedule: Q01DX005 (ip), vehicle: Klucel (hydroxypropylcellulose) (HPC) 92 % of control

CN=C(c1ccc(NC(=O)c2cc(C(=O)Nc3ccc(C(=NC)N(C)C)cc3)cc([N+](=O)[O-])c2)cc1)N(C)C
inactive: dose: 6.25 mg/kg/injection, schedule: Q01DX005 (ip), vehicle: saline 101 % of control | dose: 12.5 mg/kg/injection, schedule: Q01DX005 (ip), vehicle: saline 98 % of control

CC12CCC(=O)N1C(C(=O)O)CS2 (configuration not stated)
inactive: dose: 12.5 mg/kg/injection, schedule: Q04DX003 (ip), vehicle: saline 119 % of control | dose: 25.0 mg/kg/injection, schedule: Q04DX003 (ip), vehicle: saline 99 % of control and 106 % of control | dose: 50.0 mg/kg/injection, schedule: Q04DX003 (ip), vehicle: saline 102 % of control and 109 % of control and 97 % of control | dose: 100.0 mg/kg/injection, schedule: Q04DX003 (ip), vehicle: saline 98 % of control and 123 % of control and 97 % of control | dose: 200.0 mg/kg/injection, schedule: Q04DX003 (ip), vehicle: saline 107 % of control | dose: 400.0 mg/kg/injection, schedule: Q04DX003 (ip), vehicle: saline 91 % of control

CSc1ccc(N2C(=O)CCSC2=S)cc1Cl
inactive: dose: 50.0 mg/kg/injection, schedule: Q01DX009 (ip), vehicle: suspension in saline 108 % of control | dose: 100.0 mg/kg/injection, schedule: Q01DX009 (ip), vehicle: suspension in saline 110 % of control | dose: 200.0 mg/kg/injection, schedule: Q01DX009 (ip), vehicle: suspension in saline 114 % of control

O=C(Nc1ccc(Br)cc1)c1ccccc1
inactive: dose: 100.0 mg/kg/injection, schedule: Q01DX009 (ip), vehicle: saline with Tween-80 95 % of control | dose: 200.0 mg/kg/injection, schedule: Q01DX009 (ip), vehicle: saline with Tween-80 90 % of control | dose: 400.0 mg/kg/injection, schedule: Q01DX009 (ip), vehicle: saline with Tween-80 100 % of control

CC(C)(C)C(=O)CC(=O)C(F)(F)C(F)(F)C(F)(F)F.CC(C)(C)C(=O)CC(=O)C(F)(F)C(F)(F)C(F)(F)F.CC(C)(C)C(=O)CC(=O)C(F)(F)C(F)(F)C(F)(F)F.[Pr]
inactive: dose: 120.0 mg/kg/injection, schedule: Q01DX005 (ip), vehicle: saline with Tween-80 116 % of control | dose: 240.0 mg/kg/injection, schedule: Q01DX005 (ip), vehicle: saline with Tween-80 113 % of control

COC(=O)Nc1nc2ccc(SC)cc2c(=O)[nH]1
inactive: dose: 50.0 mg/kg/injection, schedule: Q01DX009 (ip), vehicle: Klucel (hydroxypropylcellulose) (HPC) 103 % of control and 105 % of control | dose: 100.0 mg/kg/injection, schedule: Q01DX009 (ip), vehicle: Klucel (hydroxypropylcellulose) (HPC) 113 % of control

CCCCCCCCCCCCCCCCNCC(O)CN (configuration not stated)
inactive: dose: 3.13 mg/kg/injection, schedule: Q01DX009 (ip), vehicle: saline with Tween-80 102 % of control | dose: 6.25 mg/kg/injection, schedule: Q01DX009 (ip), vehicle: saline with Tween-80 96 % of control | dose: 12.5 mg/kg/injection, schedule: Q01DX009 (ip), vehicle: saline with Tween-80 88 % of control

CN(Cc1nc2ccccc2[nH]1)N=O
inactive: dose: 100.0 mg/kg/injection, schedule: Q01DX001 (ip), vehicle: Klucel (hydroxypropylcellulose) (HPC) 97 % of control | dose: 200.0 mg/kg/injection, schedule: Q01DX001 (ip), vehicle: Klucel (hydroxypropylcellulose) (HPC) 107 % of control | dose: 400.0 mg/kg/injection, schedule: Q01DX001 (ip), vehicle: Klucel (hydroxypropylcellulose) (HPC) 102 % of control

CCN=C(NCC)Nc1ccc(NC(=O)Nc2ccc(NC(=O)Nc3ccc(NC(=NCC)NCC)cc3)cc2)cc1
inactive: dose: 6.25 mg/kg/injection, schedule: Q01DX005 (ip), vehicle: Klucel (hydroxypropylcellulose) (HPC) 107 % of control | dose: 12.5 mg/kg/injection, schedule: Q01DX005 (ip), vehicle: Klucel (hydroxypropylcellulose) (HPC) 117 % of control | dose: 25.0 mg/kg/injection, schedule: Q01DX005 (ip), vehicle: Klucel (hydroxypropylcellulose) (HPC) 121 % of control and 123 % of control | dose: 50.0 mg/kg/injection, schedule: Q01DX005 (ip), vehicle: Klucel (hydroxypropylcellulose) (HPC) 117 % of control | dose: 200.0 mg/kg/injection, schedule: Q01DX005 (ip), vehicle: Klucel (hydroxypropylcellulose) (HPC) 90 % of control

CC(=O)NC(Cc1cccc(F)c1)C(=O)O (configuration not stated)
inactive: dose: 1.56 mg/kg/injection, schedule: Q01DX009 (ip), vehicle: saline 111 % of control | dose: 3.12 mg/kg/injection, schedule: Q01DX009 (ip), vehicle: saline 106 % of control | dose: 6.25 mg/kg/injection, schedule: Q01DX009 (ip), vehicle: saline 107 % of control and 88 % of control

N#CC(C(=O)O)C(c1c(Cl)cccc1Cl)C(C#N)C(=O)O (configuration not stated)
inactive: dose: 50.0 mg/kg/injection, schedule: Q01DX005 (ip), vehicle: saline with Tween-80 97 % of control | dose: 100.0 mg/kg/injection, schedule: Q01DX005 (ip), vehicle: saline with Tween-80 89 % of control
